In article PMC10394516, “The pharmacokinetic profile of brensocatib and its effect on pharmacodynamic biomarkers including NE, PR3, and CatG in various rodent species” (Frontiers in Pharmacology, 2023):

Key:
NSPs (NE, PR3, CatG) = assay: PD onset study, bone marrow NSP activities (all three NSPs), C57BL/6 mice; type: in vivo; conditions: 5 mg/kg BID
Procedure: A 14-day PD onset study was performed in female C57BL/6 mice dosed BID. Mice were dosed by oral gavage either with vehicle (0 mg/kg) or 5 mg/kg brensocatib (BID; 10 mg/kg/day) for 1, 4, 7, 10, or 14 consecutive days. Plasma was collected from animals during the first 24 h of dosing at 1, 2, 8, 9, 10, and 24 h post the initial dose. Note the 8- and 24-h plasma samples were prior to the afternoon dose and the second day dose (if applicable), respectively. Plasma was used for PK analysis via LC-MS/MS. […]
Bone marrow lysates prepared as described above were diluted and plated onto 96-well assay plates to quantify NSP activities as described previously ([Basso et al., 2022]). Briefly, peptide substrates for NE (N-Methoxysuccinyl-Ala-Ala-Pro-Val-7-amido-4-methylcoumarin; Sigma; St. Louis, MO; Excitation/Emission at 350/450 nm), PR3 ((7-Methoxycoumarin-4-yl)acetyl-lysyl-(picolinoyl)-Tyr-Asp-Ala-Lys-Gly-Asp-N-3-(2-4-dinitrophenyl)-2-3-diaminopropyonyl-NH2); GenScript; Piscataway, NJ; Excitation/Emission at 340/430 nm), and CatG (N-Succinyl-Ala-Ala-Pro-Phe p nitroanilide; Sigma; Absorbance at 405 nm) were added at a final assay concentration of 100 μM, 40 μM, and 200 μM, respectively, and either fluorescence or absorbance was quantified using a Synergy microplate reader (BioTek; Winooski, VT). […]

CatG [1] = assay: Bone marrow CatG activity after repeated dosing, BALB/c mice; type: in vivo; conditions: for Reduction of CatG activity vs vehicle / Change From Vehicle Control (%) CatG: 7 days
Procedure: (§1) Briefly, animals were weighed and randomized into different treatment groups. In total, three different dosing levels of brensocatib were tested in each species and strain; each QD dosing level was equivalent to 1.5-times the matching daily BID dose. For BID dosing, the second daily dose was administered 8-h post the morning dose. C57BL/6 mice were dosed either BID or QD for 7 consecutive days at 0/0, 0.5/0.75, 2/3, and 20/30 mg/kg/day (BID/QD). BALB/c mice were dosed for 7 consecutive days at 0/0, 0.2/0.3, 2/3, and 20/30 mg/kg/day (BID/QD). SD rats were dosed for 9 consecutive days at 0/0, 0.2/0.3, 2/3, and 20/30 mg/kg/day (BID/QD). Wistar rats were dosed for 7 consecutive days at 0/0, 0.2/0.3, 2/3, and 20/30 mg/kg/day (BID/QD).
(§2) At the completion of the study, animals were sacrificed 16–24 h post their final dose. The hind limb bones (femurs and tibias) were collected at necropsy for bone marrow analysis of NSP activities by kinetic enzymatic assays ([Basso et al., 2022]). See section Quantification of Bone Marrow NSP Activities for details.
(§3) For the mice, each animal had the femurs and tibias of both hind limbs harvested. For the rat, the femur and tibia from a single hind limb per animal was harvested. Bones were kept on wet ice until processing for bone marrow collection. In brief, bone cutters were used to cut the epiphysis (knobby ends) off the long bones to expose the bone marrow filled cavity. Each bone cavity was then flushed with 5 mL/bone (mouse) or 10 mL/bone (rat) of ice-cold RPMI media through a […] and collected in a 50-mL conical tube. Cells were spun down at 2,500 × g at 4°C for 5 min and the supernatant was aspirated. After which, bone marrow cells were lysed with 1X red blood cell (RBC) lysis buffer (Abcam, ab204733) to eliminate contaminating RBCs and washed with PBS to remove any residual RBC lysis buffer. The resulting white blood cells (WBC) were subsequently lysed with 1% (v/v) Triton X-100 in PBS. Lysates were added to 96-well plates and stored at −80°C until NSP analyses.
(§4) Bone marrow lysates prepared as described above were diluted and plated onto 96-well assay plates to quantify NSP activities as described previously ([Basso et al., 2022]). Briefly, peptide substrates for NE (N-Methoxysuccinyl-Ala-Ala-Pro-Val-7-amido-4-methylcoumarin; Sigma; St. Louis, MO; Excitation/Emission at 350/450 nm), PR3 ((7-Methoxycoumarin-4-yl)acetyl-lysyl-(picolinoyl)-Tyr-Asp-Ala-Lys-Gly-Asp-N-3-(2-4-dinitrophenyl)-2-3-diaminopropyonyl-NH2); GenScript; Piscataway, NJ; Excitation/Emission at 340/430 nm), and CatG (N-Succinyl-Ala-Ala-Pro-Phe p nitroanilide; Sigma; Absorbance at 405 nm) were added at a final assay concentration of 100 μM, 40 μM, and 200 μM, respectively, and either fluorescence or absorbance was quantified using a Synergy microplate reader (BioTek; Winooski, VT). The specific NSP activity in each sample was calculated as the total activity minus the activity in the presence of a specific NSP inhibitor (if used), including elastase inhibitor (Abcam) for NE, sivelestat (Abcam) for PR3, and cathepsin G inhibitor I (Cayman Chemical; Ann Arbor, MI) for CatG. NSP concentrations were interpolated based on their activities relative to the standard curves created using active human NE protein (Sigma), active human PR3 protein (Sigma), and active human CatG protein (Sigma), respectively. Due to unavailability of commercial mouse and/or rat NE, PR3, and CatG proteins, the corresponding human proteins were used instead since their catalytic ability is considered to be conserved across species. A portion of each cell lysate sample was retained for protein quantification using a Pierce™ BCA Protein Assay Kit (Thermo Fisher). The NSP activities were normalized for the cell lysate protein concentrations.
(§5) The Pierce™ BCA Protein Assay Kit was used to measure the total protein of the samples after lysis to allow for subsequent normalization. […]

PR3 = assay: PD onset study, bone marrow PR3 activity, C57BL/6 mice; type: in vivo; conditions: for Percent change from vehicle PR3: bone marrow, 5 mg/kg BID oral
Procedure: A 14-day PD onset study was performed in female C57BL/6 mice dosed BID. Mice were dosed by oral gavage either with vehicle (0 mg/kg) or 5 mg/kg brensocatib (BID; 10 mg/kg/day) for 1, 4, 7, 10, or 14 consecutive days. Plasma was collected from animals during the first 24 h of dosing at 1, 2, 8, 9, 10, and 24 h post the initial dose. Note the 8- and 24-h plasma samples were prior to the afternoon dose and the second day dose (if applicable), respectively. Plasma was used for PK analysis via LC-MS/MS. On prescribed days, animals were sacrificed 16 h post final dose, and the hind bones (femurs and tibias) were collected at necropsy for bone marrow analysis of NSP activities by kinetic enzymatic assays.
as §3, §4
The Pierce™ BCA Protein Assay Kit was used to measure the total protein of the samples after lysis to allow for subsequent normalization. The manufacturer’s instructions for use were followed when performing this assay on a portion of the sample lysates which were diluted in PBS, the same diluent as used for preparation of the standard. Plates were read on the Biotek Synergy plate reader with Gen5 software.

CatG [2] = test system: CatG; parameters: method as in Cipolla et al., 2023; conditions: Phase 2 trial in NCFBE (WILLOW); ref Cipolla et al., 2023; cited from earlier work
NE = assay: Bone marrow NE activity after repeated dosing, BALB/c mice; type: in vivo; conditions: for Reduction of NE activity vs vehicle / Change From Vehicle Control (%) NE: 7 days
Procedure: as §1, §2, §3, §4, §5

[3] = BID highest dose (20 mg/kg/day)
[4] = highest dose level 20/30 (BID/QD) mg/kg/day
[5] = oral BID 0.2 mg/kg/day, 16 h post final dose
[6] = oral BID 2 mg/kg/day, 16 h post final dose
[7] = oral BID 20 mg/kg/day, 16 h post final dose
[8] = oral QD 0.3 mg/kg/day, 24 h post final dose
[9] = oral QD 3 mg/kg/day, 24 h post final dose
[10] = oral QD 30 mg/kg/day, 24 h post final dose
[11] = 5 mg/kg BID, curve fit with free min and max

## Cn1c(=O)oc2ccc(-c3ccc(C[C@@H](C#N)NC(=O)[C@@H]4CNCCCO4)cc3)cc21 [brensocatib]
NSPs (NE, PR3, CatG); visually observed
  Time to maximum reduction in NSP activities (observed): ~7 days
NSPs (NE, PR3, CatG); with modeling
  Time to maximum reduction in NSP activities (with modeling): ~8 days
CatG [1]; [3]
  Reduction of CatG activity vs vehicle: 92%
CatG [1]; QD highest dose (30 mg/kg/day)
  Reduction of CatG activity vs vehicle: 84%
CatG [1]; [4]
  Combined BID and QD percentage reduction, CatG: 88%
CatG [1]; [5]
  Change From Vehicle Control (%) CatG: −1% (p = 0.9993)
CatG [1]; [6]
  Change From Vehicle Control (%) CatG: −36% (p = 0.0165)
CatG [1]; [7]
  Change From Vehicle Control (%) CatG: −92% (p < 0.0001)
CatG [1]; [8]
  Change From Vehicle Control (%) CatG: −2% (p = 0.9983)
CatG [1]; [9]
  Change From Vehicle Control (%) CatG: −39% (p = 0.0058)
CatG [1]; [10]
  Change From Vehicle Control (%) CatG: −84% (p < 0.0001)
PR3; [11]
  Onset: Maximum reduction (plateau), PR3: 76%
  Onset: Time to reach 50% reduction, PR3: 4.5 days
  Onset: Time to reach max reduction, PR3: 8.0 days
PR3; after 1 day of treatment
  Percent change from vehicle PR3: −5% (p = 0.9972)
PR3; after 4 days of treatment
  Percent change from vehicle PR3: −43% (p = 0.0236)
PR3; after 7 days of treatment
  Percent change from vehicle PR3: −85% (p < 0.0001)
PR3; after 10 days of treatment
  Percent change from vehicle PR3: −71% (p < 0.0001)
PR3; after 14 days of treatment
  Percent change from vehicle PR3: −81% (p < 0.0001)
CatG [2]
  sputum CatG activity: Dose-dependent reductions
NE; [3]
  Reduction of NE activity vs vehicle: 79%
NE; QD highest dose (30 mg/kg/day)
  Reduction of NE activity vs vehicle: 46%
NE; [4]
  Combined BID and QD percentage reduction, NE: 62%
NE; [5]
  Change From Vehicle Control (%) NE: +26% (p = 0.4425)
NE; [6]
  Change From Vehicle Control (%) NE: −23% (p = 0.5256)
NE; [7]
  Change From Vehicle Control (%) NE: −79% (p = 0.0008)
NE; [8]
  Change From Vehicle Control (%) NE: −3% (p = 0.9990)
NE; [9]
  Change From Vehicle Control (%) NE: −16% (p = 0.8297)
NE; [10]
  Change From Vehicle Control (%) NE: −46% (p = 0.0959)
